According to publication PMC5218480 (PLoS ONE, 2017):

Tested on: MV-4-11 cells
Assay: Gene expression microarray analysis (Affymetrix PrimeView) and GSEA
Format: cell-based, human
Set-up: RFU PODN (11730768_x_at) / Fold change /veh PODN (11730768_x_at) / RFU LINC00158 (11744669_a_at) / Fold change /veh LINC00158 (11744669_a_at) / RFU DUSP10 (11751237_a_at) / Fold change /veh DUSP10 (11751237_a_at) / RFU ID3 (11757404_x_at) / Fold change /veh ID3 (11757404_x_at) / RFU PLEKHG5 (11737974_s_at) / Fold change /veh PLEKHG5 (11737974_s_at) / RFU LRRC4B (11730491_at) / Fold change /veh LRRC4B (11730491_at) / RFU GIMAP4 (11747438_a_at) / Fold change /veh GIMAP4 (11747438_a_at) / RFU KRT8 (11758183_x_at) / Fold change /veh KRT8 (11758183_x_at) / RFU CNN1 (11734310_a_at) / Fold change /veh CNN1 (11734310_a_at) / RFU VPS37D (11726825_at) / Fold change /veh VPS37D (11726825_at) / RFU C10orf10 (11716522_x_at) / Fold change /veh C10orf10 (11716522_x_at) / RFU KIR2DL2 /// KIR2DL4 /// KIR2DL5A /// KIR2DL5B /// KIR2DS1 /// KIR2DS2 /// KIR2DS3 /// KIR2DS4 /// KIR3DL3 /// KIR3DL3 /// KIR3DS1 (11738374_at) / Fold change /veh KIR2DL2 /// KIR2DL4 /// KIR2DL5A /// KIR2DL5B /// KIR2DS1 /// KIR2DS2 /// KIR2DS3 /// KIR2DS4 /// KIR3DL3 /// KIR3DL3 /// KIR3DS1 (11738374_at) / RFU C1QL1 (11718748_at) / Fold change /veh C1QL1 (11718748_at) / RFU TMPRSS4 (11747572_a_at) / Fold change /veh TMPRSS4 (11747572_a_at) / RFU HAMP (11756126_x_at) / Fold change /veh HAMP (11756126_x_at) / RFU RNFT2 (11725882_a_at) / Fold change /veh RNFT2 (11725882_a_at) / RFU NR4A2 (11747474_a_at) / Fold change /veh NR4A2 (11747474_a_at) / RFU ABCC12 (11746883_a_at) / Fold change /veh ABCC12 (11746883_a_at) / RFU TMEM136 (11760407_x_at) / Fold change /veh TMEM136 (11760407_x_at) / RFU CLDN22 /// WWC2 (11732394_at) / Fold change /veh CLDN22 /// WWC2 (11732394_at) / RFU HLA-DPB1 (11760878_x_at) / Fold change /veh HLA-DPB1 (11760878_x_at) / RFU SPINT1 (11716480_a_at) / Fold change /veh SPINT1 (11716480_a_at) / RFU GAP43 (11754022_s_at) / Fold change /veh GAP43 (11754022_s_at) / RFU A4GNT (11735810_at) / Fold change /veh A4GNT (11735810_at) / RFU PRB3 (11715151_x_at) / Fold change /veh PRB3 (11715151_x_at) / RFU TUBB4B (11761932_at) / Fold change /veh TUBB4B (11761932_at) / RFU CAPN14 (11732068_a_at) / Fold change /veh CAPN14 (11732068_a_at) / RFU TMCC2 (11721928_a_at) / Fold change /veh TMCC2 (11721928_a_at) / RFU IRGQ (11745062_a_at) / Fold change /veh IRGQ (11745062_a_at) / RFU FAM174B (11720279_a_at) / Fold change /veh FAM174B (11720279_a_at) / RFU TMPRSS4 (11748680_a_at) / Fold change /veh TMPRSS4 (11748680_a_at) / RFU FAM212B (11763350_a_at) / Fold change /veh FAM212B (11763350_a_at) / RFU PLEKHG5 (11743358_a_at) / Fold change /veh PLEKHG5 (11743358_a_at) / RFU ZSCAN30 (11745921_a_at) / Fold change /veh ZSCAN30 (11745921_a_at) / RFU CMKLR1 (11741424_a_at) / Fold change /veh CMKLR1 (11741424_a_at) / RFU LOC101060620 /// MAPK8IP1 (11723275_at) / Fold change /veh LOC101060620 /// MAPK8IP1 (11723275_at) / RFU SPTSSB (11747773_x_at) / Fold change /veh SPTSSB (11747773_x_at) / RFU PRSS12 (11739890_at) / Fold change /veh PRSS12 (11739890_at) / RFU BIN1 (11741810_x_at) / Fold change /veh BIN1 (11741810_x_at) / RFU WNT11 (11732464_a_at) / Fold change /veh WNT11 (11732464_a_at) / RFU C10orf10 (11716521_a_at) / Fold change /veh C10orf10 (11716521_a_at) / RFU C5orf56 (11738089_at) / Fold change /veh C5orf56 (11738089_at) / RFU CYB561 (11721691_x_at) / Fold change /veh CYB561 (11721691_x_at) / RFU ANKRD19P (11752326_a_at) / Fold change /veh ANKRD19P (11752326_a_at) / RFU OR2T12 /// OR2T33 /// OR2T8 (11738714_s_at) / Fold change /veh OR2T12 /// OR2T33 /// OR2T8 (11738714_s_at) / RFU VCAN (11748164_a_at) / Fold change /veh VCAN (11748164_a_at) / RFU JSRP1 (11732532_at) / Fold change /veh JSRP1 (11732532_at) / RFU KRTAP10-11 (11738290_x_at) / Fold change /veh KRTAP10-11 (11738290_x_at) / RFU MYO3A (11730013_a_at) / Fold change /veh MYO3A (11730013_a_at) / RFU EBF3 (11725865_a_at) / Fold change /veh EBF3 (11725865_a_at) / RFU CAMK2N1 (11719241_x_at) / Fold change /veh CAMK2N1 (11719241_x_at) / RFU C5orf56 (11738088_a_at) / Fold change /veh C5orf56 (11738088_a_at) / RFU OLFML3 (11715873_a_at) / Fold change /veh OLFML3 (11715873_a_at) / RFU LOC100653217 /// NTM (11731650_a_at) / Fold change /veh LOC100653217 /// NTM (11731650_a_at) / RFU MAPK11 (11762145_a_at) / Fold change /veh MAPK11 (11762145_a_at) / RFU FIZ1 (11724087_x_at) / Fold change /veh FIZ1 (11724087_x_at) / RFU OASL (11726364_x_at) / Fold change /veh OASL (11726364_x_at) / RFU SOX15 (11748057_x_at) / Fold change /veh SOX15 (11748057_x_at) / RFU CD79A (11719716_a_at) / Fold change /veh CD79A (11719716_a_at) / RFU HIST1H1D (11736915_at) / Fold change /veh HIST1H1D (11736915_at) / RFU CASKIN2 (11723855_a_at) / Fold change /veh CASKIN2 (11723855_a_at) / RFU LOC730098 (11760151_x_at) / Fold change /veh LOC730098 (11760151_x_at) / RFU OR4N2 (11742367_at) / Fold change /veh OR4N2 (11742367_at) / RFU PRRT2 (11749266_a_at) / Fold change /veh PRRT2 (11749266_a_at) / RFU SNX32 (11753110_a_at) / Fold change /veh SNX32 (11753110_a_at) / RFU CDHR5 (11726645_a_at) / Fold change /veh CDHR5 (11726645_a_at) / RFU RCAN1 (11760418_a_at) / Fold change /veh RCAN1 (11760418_a_at) / RFU FAM167A (11723789_a_at) / Fold change /veh FAM167A (11723789_a_at) / RFU FAM26E (11764081_at) / Fold change /veh FAM26E (11764081_at) / RFU ISYNA1 (11749810_s_at) / Fold change /veh ISYNA1 (11749810_s_at) / RFU ACY1 (11761880_at) / Fold change /veh ACY1 (11761880_at) / RFU 11764098_at / Fold change /veh 11764098_at / RFU SAMD14 (11745864_x_at) / Fold change /veh SAMD14 (11745864_x_at) / RFU NPB (11741838_a_at) / Fold change /veh NPB (11741838_a_at) / RFU TMPRSS6 (11731388_a_at) / Fold change /veh TMPRSS6 (11731388_a_at) / RFU KRTAP10-2 (11738614_at) / Fold change /veh KRTAP10-2 (11738614_at) / RFU ARHGAP8 /// PRR5-ARHGAP8 (11727945_x_at) / Fold change /veh ARHGAP8 /// PRR5-ARHGAP8 (11727945_x_at) / RFU KRTAP5-7 /// NADSYN1 (11734609_at) / Fold change /veh KRTAP5-7 /// NADSYN1 (11734609_at) / RFU RASL12 (11751679_a_at) / Fold change /veh RASL12 (11751679_a_at) / RFU CDKN2B (11736163_a_at) / Fold change /veh CDKN2B (11736163_a_at) / RFU PRF1 (11729649_at) / Fold change /veh PRF1 (11729649_at) / RFU, ZNF638 /// ZNF638-IT1 / Fold change vs veh, ZNF638 /// ZNF638-IT1 / RFU, PANK3 / Fold change vs veh, PANK3 / RFU, SH3YL1 / Fold change vs veh, SH3YL1 / RFU, ZEB2 / Fold change vs veh, ZEB2 / RFU, NRIP1 / Fold change vs veh, NRIP1 / RFU, PTTG1IP / Fold change vs veh, PTTG1IP / RFU, CAPN2 / Fold change vs veh, CAPN2 / RFU, MED14 / Fold change vs veh, MED14 / RFU, SNORA58 / Fold change vs veh, SNORA58 / RFU, C1orf63 / Fold change vs veh, C1orf63 / RFU, LRRFIP1 / Fold change vs veh, LRRFIP1 / RFU, NDUFAF7 / Fold change vs veh, NDUFAF7 / RFU, SLC12A2 / Fold change vs veh, SLC12A2 / RFU, IBTK / Fold change vs veh, IBTK / RFU, ESF1 / Fold change vs veh, ESF1 / Fold change vs veh, TMEM50B / RFU, TAOK1 / Fold change vs veh, TAOK1 / RFU, ACBD3 / Fold change vs veh, ACBD3 / RFU, TMA16 / Fold change vs veh, TMA16 / RFU, RWDD3 / Fold change vs veh, RWDD3 / RFU, BCAT1 / Fold change vs veh, BCAT1 / RFU, EDEM3 / Fold change vs veh, EDEM3 / RFU, TMEM33 / Fold change vs veh, TMEM33 / RFU, WDR75 / Fold change vs veh, WDR75 / RFU, AHCTF1 / Fold change vs veh, AHCTF1 / RFU, TFRC / Fold change vs veh, TFRC / RFU, ZDHHC17 / Fold change vs veh, ZDHHC17 / RFU, NOM1 / Fold change vs veh, NOM1 / RFU, ARL8B / Fold change vs veh, ARL8B / RFU, ZBTB11 / Fold change vs veh, ZBTB11 / RFU, TAMM41 / Fold change vs veh, TAMM41 / RFU, KIAA1704 /// LOC100996395 / Fold change vs veh, KIAA1704 /// LOC100996395 / RFU, ING1 / Fold change vs veh, ING1 / RFU, TRMT61B / Fold change vs veh, TRMT61B / RFU, FUBP3 / Fold change vs veh, FUBP3 / RFU, TP53 / Fold change vs veh, TP53 / RFU, TNKS2 / Fold change vs veh, TNKS2 / RFU, ZFP14 / Fold change vs veh, ZFP14 / RFU, ACTR2 / Fold change vs veh, ACTR2 / RFU, PPP3R1 / Fold change vs veh, PPP3R1 / RFU, PIK3R1 / Fold change vs veh, PIK3R1 / RFU, HNRNPA1 / Fold change vs veh, HNRNPA1 / RFU, RNF170 / Fold change vs veh, RNF170 / RFU, ZNF28 / Fold change vs veh, ZNF28 / RFU, RNGTT / Fold change vs veh, RNGTT / RFU, OGT / Fold change vs veh, OGT / RFU, BRD1 / Fold change vs veh, BRD1 / RFU, MARS / Fold change vs veh, MARS / RFU, ZNF655 / Fold change vs veh, ZNF655 / RFU, FAHD1 / Fold change vs veh, FAHD1 / RFU, BDP1 / Fold change vs veh, BDP1 / RFU, LRRCC1 / Fold change vs veh, LRRCC1 / RFU, ARID1A / Fold change vs veh, ARID1A / RFU, ZNF146 / Fold change vs veh, ZNF146 / RFU, ZNF330 / Fold change vs veh, ZNF330 / RFU, GPN3 / Fold change vs veh, GPN3 / RFU, C9orf123 / Fold change vs veh, C9orf123 / RFU, N4BP2L2 / Fold change vs veh, N4BP2L2 / RFU, ARFIP1 / Fold change vs veh, ARFIP1 / RFU, FAM179B / Fold change vs veh, FAM179B / RFU, BCL10 / Fold change vs veh, BCL10 / RFU, UHRF1BP1L / Fold change vs veh, UHRF1BP1L / RFU, BET1 / Fold change vs veh, BET1 / RFU, CNOT2 / Fold change vs veh, CNOT2 / RFU, ZNF268 / Fold change vs veh, ZNF268 / Fold change vs veh, ZNF507 / RFU, DGCR2 / Fold change vs veh, DGCR2 / RFU, WDSUB1 / Fold change vs veh, WDSUB1 / Fold change vs veh, HSP90B1 /// MIR3652 / RFU, ADSS / Fold change vs veh, ADSS / RFU, GK / Fold change vs veh, GK / RFU, ZNF148 / Fold change vs veh, ZNF148 / RFU, TAF9 / Fold change vs veh, TAF9 / RFU, SLC1A5 / Fold change vs veh, SLC1A5 / RFU, SLMO2 / Fold change vs veh, SLMO2 / RFU, ABCC4 / Fold change vs veh, ABCC4 / RFU, LOC101060439 /// RAP1B / Fold change vs veh, LOC101060439 /// RAP1B / RFU, RFX7 / Fold change vs veh, RFX7 / RFU, GTPBP10 / Fold change vs veh, GTPBP10 / RFU, CNEP1R1 / Fold change vs veh, CNEP1R1 / RFU, BIVM-ERCC5 /// ERCC5 / Fold change vs veh, BIVM-ERCC5 /// ERCC5 / RFU, ILF3 / Fold change vs veh, ILF3 / RFU 11762660_at / Fold change /veh 11762660_at / RFU VCAN (11757783_s_at) / Fold change /veh VCAN (11757783_s_at) / RFU DDX43 (11728927_at) / Fold change /veh DDX43 (11728927_at) / RFU KRT8 (11758188_x_at) / Fold change /veh KRT8 (11758188_x_at) / RFU NKD1 (11759106_at) / Fold change /veh NKD1 (11759106_at) / RFU SRD5A1 (11742802_a_at) / Fold change /veh SRD5A1 (11742802_a_at) / RFU TPSAB1 /// TPSB2 (11721975_s_at) / Fold change /veh TPSAB1 /// TPSB2 (11721975_s_at) / RFU GSTM3 (11746129_a_at) / Fold change /veh GSTM3 (11746129_a_at) / RFU IL23R (11737362_x_at) / Fold change /veh IL23R (11737362_x_at) / RFU TMEM51 (11727254_a_at) / Fold change /veh TMEM51 (11727254_a_at) / RFU PIWIL2 (11732686_x_at) / Fold change /veh PIWIL2 (11732686_x_at) / RFU ORM1 (11744905_x_at) / Fold change /veh ORM1 (11744905_x_at) / RFU CCDC152 (11743942_at) / Fold change /veh CCDC152 (11743942_at) / RFU ECM1 (11717891_a_at) / Fold change /veh ECM1 (11717891_a_at) / RFU IL23R (11748794_a_at) / Fold change /veh IL23R (11748794_a_at) / RFU TNFAIP8L3 (11732012_x_at) / Fold change /veh TNFAIP8L3 (11732012_x_at) / RFU MBOAT4 (11741988_at) / Fold change /veh MBOAT4 (11741988_at) / RFU 11764193_at / Fold change /veh 11764193_at / RFU TMEM53 (11763286_at) / Fold change /veh TMEM53 (11763286_at) / RFU MAGEB2 (11727129_at) / Fold change /veh MAGEB2 (11727129_at) / RFU TMEM200A (11744735_a_at) / Fold change /veh TMEM200A (11744735_a_at) / RFU CCDC152 (11751479_a_at) / Fold change /veh CCDC152 (11751479_a_at) / RFU FAM211A (11726209_a_at) / Fold change /veh FAM211A (11726209_a_at) / RFU RGS16 (11746705_a_at) / Fold change /veh RGS16 (11746705_a_at) / RFU VCAN (11755009_s_at) / Fold change /veh VCAN (11755009_s_at) / RFU RHOB (11743442_s_at) / Fold change /veh RHOB (11743442_s_at) / RFU RGS16 (11720943_a_at) / Fold change /veh RGS16 (11720943_a_at) / RFU RGS16 (11720944_at) / Fold change /veh RGS16 (11720944_at) / RFU, VPS4B / Fold change vs veh, VPS4B / RFU, CREB1 / Fold change vs veh, CREB1 / RFU, DNAJC13 / Fold change vs veh, DNAJC13 / RFU, GNAQ / Fold change vs veh, GNAQ / RFU, CDK5R1 / Fold change vs veh, CDK5R1 / RFU, ZRANB3 / Fold change vs veh, ZRANB3 / RFU, CUL4A / Fold change vs veh, CUL4A / RFU, CCNY / Fold change vs veh, CCNY / RFU, UFL1 / Fold change vs veh, UFL1 / RFU, COG3 / Fold change vs veh, COG3 / RFU, DIAPH2 / Fold change vs veh, DIAPH2 / RFU, SKA2 / Fold change vs veh, SKA2 / RFU, AFF3 / Fold change vs veh, AFF3 / RFU, LMF1 / Fold change vs veh, LMF1 / RFU, IPO11 / Fold change vs veh, IPO11 / RFU, DFFB / Fold change vs veh, DFFB / RFU, FOXP1 / Fold change vs veh, FOXP1 / RFU, CARD8 / Fold change vs veh, CARD8 / RFU, STRN3 / Fold change vs veh, STRN3 / RFU, ADK / Fold change vs veh, ADK / RFU, RASSF2 / Fold change vs veh, RASSF2 / RFU, WIPF1 / Fold change vs veh, WIPF1 / RFU, LARP1B / Fold change vs veh, LARP1B / RFU, RASA1 / Fold change vs veh, RASA1 / RFU, RB1 / Fold change vs veh, RB1 / RFU, PPFIA1 / Fold change vs veh, PPFIA1 / RFU, MAT2A / Fold change vs veh, MAT2A / RFU, CCT5 / Fold change vs veh, CCT5 / RFU, WDR92 / Fold change vs veh, WDR92 / RFU, CUX1 / Fold change vs veh, CUX1 / RFU, TTC7A / Fold change vs veh, TTC7A / RFU, TMEM135 / Fold change vs veh, TMEM135 / RFU, DEPTOR / Fold change vs veh, DEPTOR / RFU, CPM / Fold change vs veh, CPM / RFU, DNAJB6 / Fold change vs veh, DNAJB6 / RFU, CACNA2D3 / Fold change vs veh, CACNA2D3 / RFU, DTX4 / Fold change vs veh, DTX4 / RFU, TFCP2 / Fold change vs veh, TFCP2 / RFU, GMCL1 /// GMCL1P1 / Fold change vs veh, GMCL1 /// GMCL1P1 / RFU, AEBP2 / Fold change vs veh, AEBP2 / RFU, SNHG1 /// SNORD22 /// SNORD25 /// SNORD26 /// SNORD27 /// SNORD28 /// SNORD29 /// SNORD31 / Fold change vs veh, SNHG1 /// SNORD22 /// SNORD25 /// SNORD26 /// SNORD27 /// SNORD28 /// SNORD29 /// SNORD31 / Fold change (Aza/veh), C12orf56 (ProbeSet 11735607_a_at) / Fold change (ACY-1035/veh), C12orf56 (ProbeSet 11735607_a_at) / Fold change (Aza/veh), FGFR1OP (ProbeSet 11751329_s_at) / Fold change (ACY-1035/veh), FGFR1OP (ProbeSet 11751329_s_at) / Fold change (Aza/veh), VPS36 (ProbeSet 11739960_a_at) / Fold change (ACY-1035/veh), VPS36 (ProbeSet 11739960_a_at) / RFU SYPL1 (11715823_x_at) / Fold change /veh SYPL1 (11715823_x_at) / RFU IGFBP7 (11715501_s_at) / Fold change /veh IGFBP7 (11715501_s_at) / RFU REEP3 (11722064_at) / Fold change /veh REEP3 (11722064_at) / RFU IGLL1 (11728026_x_at) / Fold change /veh IGLL1 (11728026_x_at): dose or concentration left out as unconfirmed
Conditions: MV-4-11 cells, 48 hours

Nc1ncn([C@@H]2O[C@H](CO)[C@@H](O)[C@H]2O)c(=O)n1 [azacitidine]
RFU KRT8 (11758183_x_at): 20.69 RFU
